Reference: the supplement of paper PMC11061612

Columns and labels:
[1] = system: PC-14 (Lung Adenocarcinoma); test: Bliss excess, mean over the matrix (fraction); higher = more synergy
Outline: (§1)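 After 24 hours at 37°C and 5% CO2 in 1536-well plates, cells in DMEM/F12 or RPMI plus 10% FBS received two-drug dose matrices for 72 hours. Viability came from CellTiter-Glo 2.0 luminescence and was scaled as inhibition, anchored at 0 by vehicle wells and at 1 by blank wells. Combination Emax is taken as the second-highest inhibition in the matrix, and Bliss excess as the observed combination effect less EA + EB − EA·EB, with EA and EB the single-agent effects.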

[2] = system: COLO-684 (Endometrial Carcinoma); test: as above
Outline: as §1

[3] = system: OV-90 (Ovarian Carcinoma); test: as above
Outline: as §1

[4] = system: SK-MM-2 (Plasma Cell Myeloma); test: as above
Outline: as §1

[5] = system: NCI-H810 (Non-Small Cell Lung Carcinoma); test: as above
Outline: as §1

[6] = system: SW684 (Other Solid Carcinomas); test: as above
Outline: as §1

[7] = system: HCC-44 (Lung Adenocarcinoma); test: as above
Outline: as §1

[8] = system: EB-3 (Burkitt's Lymphoma); test: as above
Outline: as §1

[9] = system: LOUCY (T-Lymphoblastic Leukemia); test: as above
Outline: as §1

[10] = system: LAMA-84 (Chronic Myelogenous Leukemia); test: as above
Outline: as §1

[11] = system: NKM-1 (Acute Myeloid Leukemia); test: as above
Outline: as §1

[12] = system: NCI-H1755 (Lung Adenocarcinoma); test: as above
Outline: as §1

[13] = system: KYSE-70 (Esophageal Squamous Cell Carcinoma); test: as above
Outline: as §1

KYM-1 (Rhabdomyosarcoma) [14] = test: as above
Outline: as §1

[15] = system: Becker (Low Grade Glioma); test: as above
Outline: as §1

[16] = system: FLO-1 (Esophageal Adenocarcinoma); test: as above
Outline: as §1

[17] = system: PANC-02-03 (Pancreatic Carcinoma); test: as above
Outline: as §1

CHL-1 (Melanoma) [18] = test: as above
Outline: as §1

[19] = system: CML-T1 (Chronic Myelogenous Leukemia); test: as above
Outline: as §1

[20] = system: RMG-I (Ovarian Carcinoma); test: as above
Outline: as §1

[21] = system: PC-14 (Lung Adenocarcinoma); test: combination Emax (second highest fraction inhibited in the dose matrix, 72 h); higher = more inhibition; extreme values may be limits of the assay
Outline: as §1

[22] = system: COLO-684 (Endometrial Carcinoma); test: as above
Outline: as §1

[23] = system: OV-90 (Ovarian Carcinoma); test: as above
Outline: as §1

[24] = system: SK-MM-2 (Plasma Cell Myeloma); test: as above
Outline: as §1

[25] = system: NCI-H810 (Non-Small Cell Lung Carcinoma); test: as above
Outline: as §1

[26] = system: SW684 (Other Solid Carcinomas); test: as above
Outline: as §1

[27] = system: HCC-44 (Lung Adenocarcinoma); test: as above
Outline: as §1

[28] = system: EB-3 (Burkitt's Lymphoma); test: as above
Outline: as §1

[29] = system: LOUCY (T-Lymphoblastic Leukemia); test: as above
Outline: as §1

[30] = system: LAMA-84 (Chronic Myelogenous Leukemia); test: as above
Outline: as §1

[31] = system: NKM-1 (Acute Myeloid Leukemia); test: as above
Outline: as §1

[32] = system: NCI-H1755 (Lung Adenocarcinoma); test: as above
Outline: as §1

[33] = system: KYSE-70 (Esophageal Squamous Cell Carcinoma); test: as above
Outline: as §1

KYM-1 (Rhabdomyosarcoma) [34] = test: as above
Outline: as §1

[35] = system: Becker (Low Grade Glioma); test: as above
Outline: as §1

[36] = system: FLO-1 (Esophageal Adenocarcinoma); test: as above
Outline: as §1

[37] = system: PANC-02-03 (Pancreatic Carcinoma); test: as above
Outline: as §1

CHL-1 (Melanoma) [38] = test: as above
Outline: as §1

[39] = system: CML-T1 (Chronic Myelogenous Leukemia); test: as above
Outline: as §1

[40] = system: RMG-I (Ovarian Carcinoma); test: as above
Outline: as §1
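Wherever Bliss excess, mean over the matrix is given: after 72 h of two-drug dosing.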

Structure (SMILES) | Bliss excess [1] | Bliss excess [2] | Bliss excess [3] | Bliss excess [4] | Bliss excess [5] | Bliss excess [6] | Bliss excess [7] | Bliss excess [8] | Bliss excess [9] | Bliss excess [10] | Bliss excess [11] | Bliss excess [12] | Bliss excess [13] | Bliss excess (KYM-1 (Rhabdomyosarcoma) [14]) | Bliss excess [15] | Bliss excess [16] | Bliss excess [17] | Bliss excess (CHL-1 (Melanoma) [18]) | Bliss excess [19] | Bliss excess [20] | combination Emax [21] | combination Emax [22] | combination Emax [23] | combination Emax [24] | combination Emax [25] | combination Emax [26] | combination Emax [27] | combination Emax [28] | combination Emax [29] | combination Emax [30] | combination Emax [31] | combination Emax [32] | combination Emax [33] | combination Emax (KYM-1 (Rhabdomyosarcoma) [34]) | combination Emax [35] | combination Emax [36] | combination Emax [37] | combination Emax (CHL-1 (Melanoma) [38]) | combination Emax [39] | combination Emax [40]
CS(=O)(=O)CCNCc1ccc(-c2ccc3ncnc(Nc4ccc(OCc5cccc(F)c5)c(Cl)c4)c3c2)o1 [Lapatinib] + Cn1cnc2c(F)c(Nc3ccc(Br)cc3Cl)c(C(=O)NOCCO)cc21 [Selumetinib] (first compound max 10 µM, 7x7, partner max 10 µM) | 0.0206 | -0.0658 | -0.0289 | -0.0116 | -0.0554 | -0.0411 | 0.0326 | -0.0414 | 0.0378 | 0.0352 | 0.0001 | -0.0173 | -0.0319 | 0.0148 | -0.0589 | -0.004 | 0.0604 | -0.0114 | -0.0822 | -0.0833 | 0.989 | 0.349 | 0.729 | 0.126 | 0.121 | 0.281 | 0.749 | 0.697 | 0.584 | 0.912 | 0.652 | 0.539 | 0.214 | 0.407 | 0.579 | 0.572 | 0.805 | 0.475 | 0.637 | 0.586
N#Cc1cnc(Nc2cc(NC[C@H]3CNCCO3)c(C(F)(F)F)cn2)cn1 [SRA737] + O=c1[nH]cc(F)c(=O)[nH]1 [5-Fluorouracil] (first compound max 10 µM, 7x7, partner max 20 µM) | -0.0109 | -0.0334 | -0.0306 | -0.034 | -0.0924 | -0.0315 | 0.125 | -0.0561 | -0.0122 | -0.057 | -0.0812 | 0.0078 | -0.0214 | -0.0559 | 0.0222 | 0.0266 | 0.0463 | -0.0351 | -0.0498 | -0.0735 | 0.696 | 0.644 | 0.247 | 0.473 | 0.427 | 0.273 | 0.861 | 0.624 | 0.911 | 0.913 | 0.919 | 0.679 | 0.196 | 0.927 | 0.644 | 0.803 | 0.407 | 0.494 | 0.994 | 0.106
C[C@@H](Nc1cc(F)cc(F)c1)c1cc(C(=O)N(C)C)cc2c(=O)cc(N3CCOCC3)oc12 [AZD8186] + C1CN(CCC1(C(=O)N[C@@H](CCO)C2=CC=C(C=C2)Cl)N)C3=NC=NC4=C3C=CN4 [AZD5363] (first compound max 10 µM, 7x7, partner max 10 µM) | 0.0006 | -0.0839 | -0.0556 | -0.0255 | -0.099 | -0.0408 | -0.0319 | -0.0203 | 0.0819 | -0.0192 | -0.0454 | -0.0436 | -0.0493 | -0.0245 | 0.0295 | -0.0114 | -0.0364 | -0.0392 | -0.0629 | -0.0317 | 0.399 | 0.615 | 0.208 | 0.202 | 0.17 | 0.572 | 0.609 | 0.324 | 0.494 | 0.198 | 0.615 | 0.642 | 0.233 | 0.4 | 0.646 | 0.43 | 0.237 | 0.433 | 0.53 | 0.401
N#Cc1cnc(Nc2cc(NC[C@H]3CNCCO3)c(C(F)(F)F)cn2)cn1 [SRA737] + C=CCn1c(=O)c2cnc(Nc3ccc(N4CCN(C)CC4)cc3)nc2n1-c1cccc(C(C)(C)O)n1 [AZD1775] (first compound max 10 µM, partner max 1 µM) | 0.0602 | 0.0602 | -0.0401 | 0.0284 | 0.0718 | -0.0677 | 0.0685 | 0.0314 | 0.138 | 0.0718 | 0.0732 | -0.0377 | 0.0613 | 0.0382 | 0.176 | -0.0189 | -0.0172 | 0.0512 | 0.0611 | -0.0477 | 0.882 | 0.864 | 0.425 | 0.452 | 0.81 | 0.277 | 0.732 | 0.798 | 1 | 0.943 | 0.976 | 0.77 | 0.561 | 0.947 | 0.705 | 0.803 | 0.42 | 0.837 | 1 | 0.35
